Measured values published in patent publication US11660280B2, “Treatment of drug resistant gliomas” (OKLAHOMA MEDICAL RESEARCH FOUNDATION, priority 2017, dated 2023).

Key:
[1] = system: GBM cells (LN229, U138, G55, U251, T98, LN18); assay: Cell viability at 1 mM vs 2 mM OKN; format: cell-based, human
[2] = tested in vivo; cited from earlier work
[3] = system: HIF-1α; assay: RT-PCR gene-fold changes in human GBM cells; format: cell-based
Description: (§1) Quantification of mRNA by real-time quantitative RT-PCR for HIF-1a, MPG and MGMT. Total RNA from all cell lines with all treatments was purified with an RNeasy Mini Kit (Qiagen), and quantified by spectrophotometry (Nanodrop). cDNA was synthesized using SuperScript IV Reverse Transcriptase Kit (Invitrogen).
(§2) Target gene mRNA was amplified and measured by Bio-Rad CFX96™ Real Time System. Gene expression was determined using the SYBR Select Master Mix (Applied Biosystems). […] The reaction is characterized by the point during cycling when amplification of PCR products is first detected, rather than the amount of PCR product accumulated after a fixed number of cycles. The higher the starting quantity of the template, the earlier a significant increase in fluorescence is observed. The threshold cycle is defined as the fractional cycle number at which fluorescence passes a fixed threshold above the baseline. Fluorescence data were converted into cycle threshold measurements exported to Microsoft Excel. Glyceraldehyde-3-phosphatase dehydrogenase (GAPDH) mRNA expression levels were used as the quantitative internal control. For precise quantification, the mRNA expression level of each sample was normalized using the expression of the GAPDH gene.
(§3) All primers were synthesized by Integrated DNA Technologies. The primers used were: […]

[4] = system: G55 GBM cells; assay: Cell migration in laminin-coated PDMS micro-channels; format: cell-based, human; conditions: at 22 h and 46 h following treatment
Description: Cell migration. For the migration study, 6-well chambers with PDMS (polydimethylsiloxane) micro-channels inside were coated with 10 μg/ml of laminin (Sigma-Aldrich) in each well. G55 cells were seeded (50×10^3) in 100 μl and supplemented with 2 ml of media in each well. The chambers were incubated in the incubator at 37° C. with 5% CO2 until scheduled time points. Some chambers were treated with OKN-007, TMZ or OKN-007 combined with TMZ (1 μL/mL media for both OKN-007 and TMZ, as well as when the two are combined), and for each treatment group one well was left untreated as a control. Images of the cells inside the microchannels were taken using an Olympus CK40 inverted microscope (Japan) under 10× and the distances of the same cells traveled were measured at 22 h, 28 h, and 46 h post seeding, cell migration speed (μm/h) was calculated. Each treatment was repeated at least 3 times and data shown as mean ±S.D.

[5] = system: MPG; assay: RT-PCR gene-fold changes in human GBM cells; format: cell-based
Description: as §1, §2, §3
(§4) were used to amplify 603-bp transcripts of MPG [9].

[6] = system: MGMT; assay: RT-PCR gene-fold changes in human GBM cells; format: cell-based
Description: as §1, §2, §3, §4

[7] = T98 cells (TMZ-resistant), UT 1.00
[8] = U251 cells (TMZ-sensitive), UT 1.00

Structure (SMILES): CC(C)(C)[N+]([O-])=Cc1ccc(S(=O)(=O)O)cc1S(=O)(=O)O [OKN-007, 2,4-disulfonyl phenyl tert-butyl nitrone]
- reduction of cell viabilities, 1 mM OKN compared to the 2 mM concentration ([1]; LN229, U138, G55 cells): just as effective
- reduction of cell viabilities, 2 mM OKN compared to the 1 mM concentration ([1]; U251, T98, LN18 cells): slightly more effective
- efficacy as compared to PBN [2]: unexpected increase in efficacy
- potency as compared to PBN [2]: increase in potency
- toxicity as compared to PBN [2]: marked and highly significant decrease in toxicity
- RT-PCR gene-fold change HIF-1α ([3]; G55 cells (TMZ-resistant), UT 1.00): 1.20 fold
- RT-PCR gene-fold change HIF-1α ([3]; LN18 cells (TMZ-resistant), UT 1.03): 1.35 fold
- RT-PCR gene-fold change HIF-1α ([3]; LN229 cells (TMZ-sensitive), UT 1.00): 1.09 fold
- RT-PCR gene-fold change HIF-1α [3, 7]: 0.58 fold
- RT-PCR gene-fold change HIF-1α ([3]; U138 cells (TMZ-resistant), UT 1.00): 2.93 fold
- RT-PCR gene-fold change HIF-1α [3, 8]: 1.59 fold
- cell migration speed compared to untreated (UT) cells [4]: significantly decreased
- RT-PCR gene-fold change MPG ([5]; G55 cells (TMZ-resistant), UT 1.06): 4.52 fold
- RT-PCR gene-fold change MPG ([5]; LN18 cells (TMZ-resistant), UT 1.00): 0.60 fold
- RT-PCR gene-fold change MPG ([5]; LN229 cells (TMZ-sensitive), UT 1.10): 0.62 fold
- RT-PCR gene-fold change MPG ([5]; T98 cells (TMZ-resistant), UT 1.10): 0.62 fold
- RT-PCR gene-fold change MPG ([5]; U138 cells (TMZ-resistant), UT 1.13): 11.10 fold
- RT-PCR gene-fold change MPG ([5]; U251 cells (TMZ-sensitive), UT 1.10): 0.81 fold
- RT-PCR gene-fold change MGMT ([6]; LN18 cells (TMZ-resistant), UT 1.06): 0.42 fold
- RT-PCR gene-fold change MGMT [6, 7]: 0.54 fold
- RT-PCR gene-fold change MGMT [6, 8]: 1.22 fold
